Experiments:
[1] = system: atherosclerosis model induced by high-fat diet in ApoE knockout mice; experiment: Ratio of atherosclerotic plaque area to total inner wall area of the aorta (En-Face, oil red; Example 2); type: in vivo; settings: for Mean of Plaque Ratio (plaque area to total inner wall area of aorta): high-fat diet; for symptoms of atherosclerosis under therapeutic intervention (mainly plaque area ratio): different doses, Example 2
Excerpt: (§1) Methods: A total of 130 SPF grade C57BL/6 ApoE −/− model male mice aged 8 weeks were purchased from Charles River Laboratories (Beijing, China) (animal license number: SCXK (Beijing) 2016-0001, animal qualification certificate No.: 11400700331337). After one week of acclimatization in a SPF-grade animal facility, the animals with less weights were discarded and the rest was randomly divided into 11 groups, with 8 animals in each group. Except for the healthy control group, the rest were fed with 10% high-fat food (the first day of the high-fat diet was recorded as D1). Starting from the 8th week of the high-fat diet, each group of animals was orally given solvents or corresponding drugs, and the volume of administration was 10 ml/kg, once a day for 8 weeks. Animals were observed and administered by gavage once a day and the body weight were measured once a week for 56 days. […] The store solution of the test samples was dissolved in dimethyl sulfoxide solution and prepared with 30% PEG300.
Immediately after blood was taken from the heart, it was perfused through the left ventricle with 20 ml of normal saline. After bloodletting, the heart and aorta (from the aortic arch to the iliac artery) were isolated. The isolated artery was cut longitudinally from the aortic arch to the iliac artery, fixed in 4% paraformaldehyde for 30 minutes, synchronized with 60% isopropanol for 10 minutes, stained in 60% oil red for 30 minutes, and washed by 60% isopropanol 3 times, 5 minutes each time. Finally, the colored aorta was washed with deionized water and photographed. The proportion of the red plaque area was measured by Image Pro Plus 6.0 (Media Cybernetics, MD, US). The heart samples were fixed in 4% paraformaldehyde solution overnight and then placed in sucrose solution for dehydration. Then, it was embedded with OCT (Sakura, Japan) under a stereo microscope and made into 7 μm frozen sections. After HE staining, the slices were used for routine pathological examination. The outflow tract images were collected under an optical microscope at 4* magnification, and 4*, 10*, 20* and 40* magnification eyepieces were used for high-quality morphological observation. The detection standard referred to the histological classification standard of human atherosclerosis disease.
Evaluate the effect of different therapeutic drugs by the ratio of the area of atherosclerotic plaque to the total area of the inner wall of the aortic vessel (En-Face)
We adopted the widely accepted standard for the severity of arteriosclerosis in animal models, and analyzed the area of all plaques on the inner wall of the aorta. […] FIGS. 46A and 46B are histograms of the ratios of plaque area on the inner wall of the aorta in each treatment group. The values in FIGS. 46A and 46B are the ratios of plaques to the total area of the inner wall in each group, and the error is standard error±SEM. The statistical significance analysis is as follows: ***P<0.001 compared with the normal control group; #P<0.05 compared with the vehicle group; ##P<0.01, ###P<0.001, compared with the vehicle group through one-way ANOVA Dunnett's test; & represents P<0.05, compared with the vehicle group by t test.

ApoE knockout mice [2] = experiment: Blood lipid metabolism TG, TCHO, HDL-c, LDL-c (Example 2); type: in vivo
Excerpt: as §1
At the end of the experiment, the animals were euthanized by inhalation of carbon dioxide. Blood was taken from the heart, and centrifuged at 3000 r/min at a low temperature centrifuge for 10 min to separate the serum. The levels of total cholesterol TC, triglyceride TG, high-density lipoprotein HDL-C, and low-density lipoprotein LDL-C were measured, and the remaining serum was stored in a refrigerator at −80° C.
Before the start of the experiment, animal blood samples were analyzed for blood lipid metabolism, including conventional triglyceride (TG), total cholesterol (TCHO), high-density lipoprotein (HDL-c) and low-density lipoprotein (LDL-c). After high-fat or ordinary food feeding for 8 weeks, the blood lipid levels were measured again. After the drug treatment was started, blood lipid measurements were performed every four weeks until the end of the experiment.

[3] = Body weight of ApoE knockout mice on high-fat food (Example 1); type: in vivo; settings: 20 mg/kg gavage QD
Excerpt: (§2) Methods: SPF grade C57BL/6 ApoE −/−model mice were provided by Guangdong Medical Experimental Animal Center, laboratory animal production license No. SOCK (Guangdong) 2013-0002. Laboratory animal quality certificate number: 44007200048196). Mice were half male and half female, aged 8 to 12 weeks, and 72 animals in total. After four weeks of housing in a SPF-level animal facility, animals with less body weights were disposed. A total of 64 animals were randomly divided into 8 groups, 8 in each group, fed with 10% high-fat food, and received with different treatments. Animals were observed and administered with the medicines by gavage once daily. The body weights were measured once a week and continued for 58 days. […] The test sample was dissolved in dimethyl sulfoxide solution and prepared with 30% PEG300.
Statistical analysis: Data were expressed as the mean plus or minus the standard deviation (x± s), and analyzed by SPSS21.0 statistical software. The weight data of each group were compared by repeated measures analysis of variance; the blood lipid levels of the statin treatment group were compared with the model control group by independent sample T test; the blood lipid levels of the test samples A and B were compared with the model control group by one-way analysis of variance, and LSD method was used for the comparison among groups. The level of test is α=0.05.

ApoE knockout mice [4] = experiment: Four blood lipids in serum of ApoE knockout mice (Example 1); type: in vivo; settings: serum
Excerpt: as §2
At the end of the experiment, animals were anesthetized with pentobarbital sodium. Blood was collected from the orbital venous plexus, and centrifuged at 3000 r/min at a low temperature for 10 min to separate the serum. The levels of total cholesterol TC, triglyceride TG, high-density lipoprotein HDL-C, and low-density lipoprotein LDL-C were measured, and the remaining serum was stored in a refrigerator at −80° C.
Statistical analysis: Data were expressed as the mean plus or minus the standard deviation (x± s), and analyzed by SPSS21.0 statistical software. […] The level of test is α=0.05.

[5] = system: atherosclerotic lesions in ApoE knockout mice; experiment: Aortic HE and oil red O staining, atherosclerotic lesion scores (Example 1); type: in vivo
Excerpt: as §2
(§3) After blood collection, the animals were sacrificed, and the aortic arch together with the heart and thoracic aorta were fixed with neutral formaldehyde and subject to pathological examination. The abdominal aorta was collected and quick-frozen in liquid nitrogen, and stored at −80° C.
a) HE staining: aortic arch was sliced and HE stained. The plaques were observed under optical microscope.
b) Oil red O staining: aortic arch was sliced and oil red O stained. The plaques were observed under optical microscope.

VCAM-1 = experiment: Immunohistochemistry of aortic wall, VCAM-1; type: in vivo, mice; settings: IHC-P×400, single animal micrograph, 20 mg/kg
Excerpt: as §2, §3
(§4) c) Immunohistochemistry: The thoracic aorta was sliced and detected by immunohistochemistry for the expression of CD68, intercellular adhesion molecule-1 (ICAM-1), and vascular cell adhesion Molecule-1 (VCAM-1).

ICAM-1 = experiment: Immunohistochemistry of aortic wall, ICAM-1; type: in vivo, mice; settings: IHC-P×400, single animal micrograph, 20 mg/kg
Excerpt: as §2, §3, §4

CD68 = experiment: Immunohistochemistry of aortic wall, CD68; type: in vivo, mice; settings: IHC-P×400, single animal micrograph, 20 mg/kg
Excerpt: as §2, §3, §4

[6] = half male and female, 20 mg/kg body weight
[7] = ♀, 20 mg/kg gavage QD, 58 days, 20 mg/kg
[8] = ♀, 20 mg/kg gavage QD, 58 days, listed as statin, 20 mg/kg
[9] = ♂, 20 mg/kg gavage QD, 58 days, 20 mg/kg
[10] = ♂, 20 mg/kg gavage QD, 58 days, listed as statin, 20 mg/kg
[11] = of 8 animals, 20 mg/kg body weight

For `Cc1ccc(CC(=O)N2CCC(n3c(=O)[nH]c4ccccc43)CC2)cc1` [Sample X7, 1-(1-(2-(p-tolyl)acetyl)piperidin-4-yl)-1H-benzo[d]imidazole-2(3H)-one], the “Mean of Plaque Ratio (plaque area to total inner wall area of aorta)” value (shortened to “Mean of Plaque Ratio”) ([1]; 5 mpk PO QD 8 weeks) was 9.00%, the “symptoms of atherosclerosis under therapeutic intervention (mainly plaque area ratio)” value [1] was “significantly alleviate the symptoms of atherosclerosis” and the “effect on high-density lipoprotein (HDL-c) level compared with the vehicle group” value (ApoE knockout mice [2]) was “no obvious effect”. For the same compound, the “effect on low-density lipoprotein (LDL-c) level compared with the vehicle group” value (ApoE knockout mice [2]) was “significantly reduce”, the “effect on total cholesterol (TCHO) level compared with the vehicle group” value (ApoE knockout mice [2]) was “significantly reduce” and the “effect on triglyceride (TG) level compared with the vehicle group” value (ApoE knockout mice [2]) was “significantly reduce”.

With `O=C(Cc1ccc(C(F)(F)F)cc1)N1CCC(n2c(=O)[nH]c3ccccc32)CC1` [Sample X8, 1-(1-(2-(4-(trifluoromethyl)phenyl)acetyl)piperidin-4-yl)-1H-benzo[d]imidazole-2(3H)-one] the “Mean of Plaque Ratio” value ([1]; 5 mpk PO QD 8 weeks) was 9.02%, the “Mean of Plaque Ratio” value ([1]; 10 mpk PO QD 8 weeks) was 6.93% and the “symptoms of atherosclerosis under therapeutic intervention (mainly plaque area ratio)” value [1] was “significantly alleviate the symptoms of atherosclerosis”. The “effect on high-density lipoprotein (HDL-c) level compared with the vehicle group” value (ApoE knockout mice [2]) was “no obvious effect”, the “effect on low-density lipoprotein (LDL-c) level compared with the vehicle group” value (ApoE knockout mice [2]) was “significantly reduce” and the “effect on total cholesterol (TCHO) level compared with the vehicle group” value (ApoE knockout mice [2]) was “significantly reduce”. The “effect on triglyceride (TG) level compared with the vehicle group” value (ApoE knockout mice [2]) was “significantly reduce”.

Compound `CC(C)c1c(C(=O)Nc2ccccc2)c(-c2ccccc2)c(-c2ccc(F)cc2)n1CC[C@@H](O)C[C@@H](O)CC(=O)[O-].CC(C)c1c(C(=O)Nc2ccccc2)c(-c2ccccc2)c(-c2ccc(F)cc2)n1CC[C@@H](O)C[C@@H](O)CC(=O)[O-].[Ca+2]` [Statin, Atorvastatin calcium, reference compound] has a body weight ([3]; d1, half male and female) of 25.1 ± 4.2 g, a body weight ([3]; d1, ♀) of 21.2 ± 0.9 g and a body weight ([3]; d1, ♂) of 28.9 ± 1.2 g. The body weight ([3]; d8, half male and female) was 25.4 ± 3.8 g, the body weight ([3]; d8, ♀) was 22.0 ± 0.6 g and the body weight ([3]; d8, ♂) was 28.9 ± 0.9 g. It also gave a body weight ([3]; d15, half male and female) of 25.3 ± 4.1 g, a body weight ([3]; d15, ♀) of 21.5 ± 0.7 g and a body weight ([3]; d15, ♂) of 29.0 ± 1.1 g. It also gave a body weight ([3]; d22, half male and female) of 25.2 ± 4.2 g, a body weight ([3]; d22, ♀) of 21.4 ± 0.6 g and a body weight ([3]; d22, ♂) of 29.0 ± 1.4 g. The body weight ([3]; d29, half male and female) was 25.2 ± 4.2 g, the body weight ([3]; d29, ♀) was 21.4 ± 0.6 g and the body weight ([3]; d29, ♂) was 29.1 ± 1.2 g. The body weight ([3]; d36, half male and female) was 25.7 ± 3.8 g, the body weight ([3]; d36, ♀) was 22.2 ± 0.9 g and the body weight ([3]; d36, ♂) was 29.2 ± 1.0 g. The body weight ([3]; d43, half male and female) was 26.0 ± 3.9 g, the body weight ([3]; d43, ♀) was 22.4 ± 0.5 g and the body weight ([3]; d43, ♂) was 29.6 ± 0.8 g. It also gave a body weight ([3]; d50, half male and female) of 26.5 ± 3.7 g, a body weight ([3]; d50, ♀) of 23.1 ± 0.9 g and a body weight ([3]; d50, ♂) of 29.8 ± 0.6 g. The body weight ([3]; d57, half male and female) was 26.4 ± 4.1 g, the body weight ([3]; d57, ♀) was 22.7 ± 0.8 g and the body weight ([3]; d57, ♂) was 30.0 ± 1.6 g. The body weight ([3]; d58, half male and female) was 26.2 ± 3.8 g, the body weight ([3]; d58, ♀) was 22.8 ± 0.5 g and the body weight ([3]; d58, ♂) was 29.7 ± 1.4 g. It also gave an LDL-C (ApoE knockout mice [4]; [6]) of 5.60 ± 1.19 mmol/L, a TC (ApoE knockout mice [4]; [6]) of 18.15 ± 2.38 mmol/L and a TG (ApoE knockout mice [4]; half male and female, 20 mg/kg body weight, 20 mg/kg) of 0.71 ± 0.19 mmol/L. For the same compound, the TG (ApoE knockout mice [4]; half male and female, 20 mg/kg body weight, listed as statin, 20 mg/kg) was “lower”, the LDL-C (ApoE knockout mice [4]; ♀, 20 mg/kg gavage QD, 58 days) was 5.03 ± 0.57 mmol/L and the HDL-C (ApoE knockout mice [4]; [7]) was 1.44 ± 0.09 mmol/L. For the same compound, the TC (ApoE knockout mice [4]; [7]) was 16.85 ± 1.76 mmol/L, the TG (ApoE knockout mice [4]; [7]) was 0.65 ± 0.06 mmol/L and the HDL-C (ApoE knockout mice [4]; [8]) was “reduced to varying degrees, but there was no statistical difference”. For the same compound, the TC (ApoE knockout mice [4]; [8]) was “reduced to varying degrees, but there was no statistical difference”, the TG (ApoE knockout mice [4]; [8]) was “reduced to varying degrees, but there was no statistical difference” and the LDL-C (ApoE knockout mice [4]; ♂, 20 mg/kg gavage QD, 58 days) was 6.17 ± 1.46 mmol/L. For the same compound, the HDL-C (ApoE knockout mice [4]; [9]) was 1.92 ± 0.62 mmol/L, the TC (ApoE knockout mice [4]; [9]) was 19.45 ± 2.37 mmol/L and the TG (ApoE knockout mice [4]; [9]) was 0.78 ± 0.27 mmol/L. The HDL-C (ApoE knockout mice [4]; [10]) was “lower”, the TC (ApoE knockout mice [4]; [10]) was “lower” and the TG (ApoE knockout mice [4]; [10]) was “lower”. For the same compound, the “Mild n (number of animal cases with mild lesions)” value [5, 11] was 0, the “Moderate n (number of animal cases with moderate lesions)” value [5, 11] was 3 and the “No lesion n (number of animal cases)” value [5, 11] was 3. For the same compound, the “Severe n (number of animal cases with severe lesions)” value [5, 11] was 2, the “animals that had atherosclerosis (histological observation)” value ([5]; of 8 aortas examined, 20 mg/kg) was 5 cases and the “Scores (atherosclerotic lesion score, average of the group)” value ([5]; score 0-3 per Table 8, 20 mg/kg body weight) was 1.50 ± 1.31. The “aorta (VCAM-1) signal expression in blood vessels” value (VCAM-1) was “low to medium”, the “aorta (ICAM-1) signal expression in blood vessels” value (ICAM-1) was “low to medium” and the “aorta (CD68) signal expression in blood vessels” value (CD68) was “low to medium”. The “effect on total cholesterol (TCHO) level compared with the vehicle group” value (ApoE knockout mice [2]) was “reduce” and the “effect on triglyceride (TG) level compared with the vehicle group” value (ApoE knockout mice [2]) was “increase”.
